Experimental data as given in patent publication US9440989B2, “Antifibrinolytic compounds” (PROYECTO DE BIOMEDICINA CIMA, S.L., priority 2012, dated 2016).
Read-outs that look alike come from different tables or passages of the source.

Test system: human blood (whole blood clot lysis, tPA)
Assay: Thromboelastometry (ROTEM, modified in-tem with tPA): whole blood clot formation and lysis, human blood
Settings: read-out: EC50LT (effective concentration to delay lysis time by 50%)
[1] = human blood, tPA, assayed concentrations 1000-0.2 μM

Description: A modification of in-tem test as described below was used for the examination of antifibrinolytic effects of tested compounds and its interaction with platelets in citrated blood.
In a pre-warmed cuvette and holder 1 μL of Tissue plasminogen activator (tPA) (150,000 U/mL, Actylise), 20 μL of start-tem reagent (CaCl2), 20 μL of in-tem reagent (activators of coagulation system), 3 μL of DMSO (control) or tested compounds (CMs) in DMSO and 300 μL of citrated blood pre-warmed were pipetted. The cup holder containing the sample mixture was placed immediately on the appropriate channel. The measurement was recorded for 60 min to allow clot formation and lysis.

SMILES | EC50 (Homo sapiens) [µM] | EC50 [1] [µM]
CC(C)CCOc1ccc(S(=O)(=O)C2(C(=O)NO)CCC3(CCNCC3)C2)cc1 (centres unmarked) [Example 1-05] | 10 to 25 | –
O=C(NO)C1(S(=O)(=O)c2ccc(OCCN3CCCCC3)cc2)CCC2(CCNCC2)C1 (centres unmarked) [Example 1-11, N-hydroxy-3-(4-[2-(piperidin-1-yl)ethoxy]phenylsulfonyl)-8-azaspiro[4.5]decane-3-carboxamide] | < 1 | –
COC1CCN(c2ccc(S(=O)(=O)C3(C(=O)NO)CCC4(CCNCC4)C3)cc2)CC1 (centres unmarked) [Example 1-16, N-hydroxy-3-[4-(4-methoxypiperidin-1-yl)phenylsulfonyl]-8-azaspiro[4.5]decane-3-carboxamide] | 1 to 10 | –
O=C(NO)C1(S(=O)(=O)c2ccc(OC3CCCCC3)cc2)CCC2(CCNCC2)C1 (centres unmarked) [Example 1-18] | 1 to 10 | –
COc1ccc(Oc2ccc(S(=O)(=O)C3(C(=O)NO)CCC4(CCN(c5ccccc5)CC4)C3)cc2)cc1 (centres unmarked) [Example 1-34] | > 25 | –
COc1ccc(Oc2ccc(S(=O)(=O)C3(C(=O)NO)CCC4(CCN(c5ccccn5)CC4)C3)cc2)cc1 (centres unmarked) [Example 1-35] | 1 to 10 | –
COc1ccc(Oc2ccc(S(=O)(=O)C3(C(=O)NO)CCC4(CCN(Cc5ccccc5)CC4)C3)cc2)cc1 (centres unmarked) [Example 1-36] | 1 to 10 | –
COc1ccc(Oc2ccc(S(=O)(=O)C3(C(=O)NO)CCC4(CCN(Cc5ccncc5)CC4)C3)cc2)cc1 (centres unmarked) [Example 1-37] | > 25 | –
COc1ccc(Oc2ccc(S(=O)(=O)C3(C(=O)NO)CCC4(CCN(Cc5cnc[nH]5)CC4)C3)cc2)cc1 (centres unmarked) [Example 1-39] | – | > 25
O=C(NO)C1(S(=O)(=O)c2ccc(NCc3ccccc3)cc2)CCC2(CCNCC2)C1 (centres unmarked) [Example 1-67] | < 1 | –
COC1CCC(Oc2ccc(S(=O)(=O)C3(C(=O)NO)CCC4(CCNCC4)C3)cc2)CC1 (centres unmarked) [Example 1-70] | < 1 | –
COC1CCC(Nc2ccc(S(=O)(=O)C3(C(=O)NO)CCC4(CCNCC4)C3)cc2)CC1 (centres unmarked) [Example 1-77] | 1 to 10 | –
O=C(NO)C1(S(=O)(=O)c2cccc(NC3CCCCC3)c2)CCC2(CCNCC2)C1 (centres unmarked) [Example 1-78] | > 25 | –
O=C(Nc1ccc(S(=O)(=O)C2(C(=O)NO)CCC3(CCNCC3)C2)cc1)C1CCCCC1 (centres unmarked) [Example 1-81, N-hydroxy-3-(4-(cyclohexanecarbonylamino)Phenylsulfonyl)-8-azaspiro[4.5]decane-3-carboxamide] | < 1 | –
CNC(=O)C1CCC(Nc2ccc(S(=O)(=O)C3(C(=O)NO)CCC4(CCNCC4)C3)cc2)CC1 (centres unmarked) [Example 1-83] | > 25 | –
O=C(O)C1CCC(Nc2ccc(S(=O)(=O)C3(C(=O)NO)CCC4(CCNCC4)C3)cc2)CC1 (centres unmarked) [Example 1-84] | < 1 | –
COc1cc(S(=O)(=O)C2(C(=O)NO)CCC3(CCNCC3)C2)ccc1NC1CCCCC1 (centres unmarked) [Example 1-90, N-hydroxy-3-(3-methoxy-4-(cyclohexylamino)Phenylsulfonyl)-8-azaspiro[4.5]decane-3-carboxamide] | > 25 | –
O=C(NO)C1(S(=O)(=O)c2ccc(OCC3CCCCC3)cc2)CCC2(CCNCC2)C1 (centres unmarked) [Example 1-92] | 1 to 10 | –
O=C(NO)C1(S(=O)(=O)c2ccc(NC3CCCC3)cc2)CCC2(CCNCC2)C1 (centres unmarked) [Example 1-97] | 1 to 10 | –
O=C(Oc1ccc(S(=O)(=O)C2(C(=O)NO)CCC3(CCNCC3)C2)cc1)C1CCCCC1 (centres unmarked) [Example 1-98] | > 25 | –
CNC(=O)c1ccc(C(=O)Oc2ccc(S(=O)(=O)C3(C(=O)NO)CCC4(CCNCC4)C3)cc2)cc1F (centres unmarked) [Example 1-101] | 1 to 10 | –
CNC(=O)c1ccc(CNc2ccc(S(=O)(=O)C3(C(=O)NO)CCC4(CCNCC4)C3)cc2)cc1 (centres unmarked) [Example 1-104] | < 1 | –
COC(=O)c1ccc(CNc2ccc(S(=O)(=O)C3(C(=O)NO)CCC4(CCNCC4)C3)cc2)cc1 (centres unmarked) [Example 1-105] | > 25 | –
O=C(O)c1ccc(CNc2ccc(S(=O)(=O)C3(C(=O)NO)CCC4(CCNCC4)C3)cc2)cc1 (centres unmarked) [Example 1-106] | < 1 | –
O=C(Oc1cccc(S(=O)(=O)C2(C(=O)NO)CCC3(CCNCC3)C2)c1)c1ccc(OC(F)(F)F)cc1 (centres unmarked) [Example 1-120] | > 25 | –
O=C(NO)C1(S(=O)(=O)c2ccc(O)c(Cl)c2)CCC2(CCNCC2)C1 (centres unmarked) [Example 1-121] | 1 to 10 | –
O=C(NO)C1(S(=O)(=O)c2ccc(OCc3ccccc3)c(Cl)c2)CCC2(CCNCC2)C1 (centres unmarked) [Example 1-122] | > 25 | –
O=C(NO)C1(S(=O)(=O)c2ccc(Oc3ccc(OC(F)(F)F)cc3)cc2)CCC2(CCN(C3CC3)CC2)C1 (centres unmarked) [Example 1-124] | 1 to 10 | –
O=C(NO)C1(S(=O)(=O)c2ccc(NCC3CCC(F)(F)CC3)cc2)CCC2(CCNCC2)C1 (centres unmarked) [Example 1-125] | < 1 | –

Other lines, results leading:

EC50 (Homo sapiens) [µM] | EC50 [1] [µM] | SMILES
> 25 | – | COC(=O)c1ccc(Oc2ccc(S(=O)(=O)C3(C(=O)NO)CCC4(CCNCC4)C3)cc2)cc1 (centres unmarked) [Example 1-06]
< 1 | – | CC(=O)Nc1ccc(Oc2ccc(S(=O)(=O)C3(C(=O)NO)CCC4(CCNCC4)C3)cc2)cc1 (centres unmarked) [Example 1-13]
> 25 | – | COc1ccc(Sc2ccc(S(=O)(=O)C3(C(=O)NO)CCC4(CCNCC4)C3)cc2)cc1 (centres unmarked) [Example 1-15]
1 to 10 | – | COc1ccc(S(=O)(=O)c2ccc(S(=O)(=O)C3(C(=O)NO)CCC4(CCNCC4)C3)cc2)cc1 (centres unmarked) [Example 1-17]
< 1 | – | O=C(NO)C1(S(=O)(=O)c2ccc(Oc3ccc(C(F)(F)F)cc3)cc2)CCC2(CCNCC2)C1 (centres unmarked) [Example 1-21]
1 to 10 | – | COc1ccc(Oc2ccc(S(=O)(=O)C3(C(=O)NO)CCC4(CCN(CC(C)=O)CC4)C3)cc2)cc1 (centres unmarked) [Example 1-28]
1 to 10 | – | COc1ccc(Oc2ccc(S(=O)(=O)C3(C(=O)NO)CCC4(CCN(CC(=O)O)CC4)C3)cc2)cc1 (centres unmarked) [Example 1-29]
< 1 | – | CCCN1CCC2(CC1)CCC(C(=O)NO)(S(=O)(=O)c1ccc(Oc3ccc(OC)cc3)cc1)C2 (centres unmarked) [Example 1-31]
1 to 10 | – | COc1ccc(Oc2ccc(S(=O)(=O)C3(C(=O)NO)CCC4(CCN(C5CC5)CC4)C3)cc2)cc1 (centres unmarked) [Example 1-32]
> 25 | – | CNC(=O)N1CCC2(CC1)CCC(C(=O)NO)(S(=O)(=O)c1ccc(Oc3ccc(OC)cc3)cc1)C2 (centres unmarked) [Example 1-33]
> 25 | – | COc1ccc(-c2ccc(S(=O)(=O)C3(C(=O)NO)CCC4(CCNCC4)C3)cc2)cc1 (centres unmarked) [Example 1-41, N-hydroxy-3-(4-(4-methoxyphenyl)Phenylsulfonyl)-8-azaspiro[4.5]decane-3-carboxamide]
< 1 | – | COc1ccc(Oc2ccc(S(=O)(=O)C3(C(=O)NO)CC34CCNCC4)cc2)cc1 (centres unmarked) [Example 1-43]
< 1 | – | COc1ccc(Oc2ccc(S(=O)(=O)C3(C(=O)NO)CCC4(CCNCC4)C3)cc2Cl)cc1 (centres unmarked) [Example 1-56, N-hydroxy-3-(3-chloro-4-(4-methoxyphenoxyl)Phenylsulfonyl)-8-azaspiro[4.5]decane-3-carboxamide]
> 25 | – | O=C(NO)C1(S(=O)(=O)c2ccc(O)cc2)CCC2(CCNCC2)C1 (centres unmarked) [Example 1-60, N-hydroxy-3-(4-hydroxyphenylsulfonyl)-8-azaspiro[4.5]decane-3-carboxamide]
> 25 | – | Nc1ccc(S(=O)(=O)C2(C(=O)NO)CCC3(CCNCC3)C2)cc1 (centres unmarked) [Example 1-61]
– | 1 to 10 | CN(C)C(=O)c1ccc(Oc2ccc(S(=O)(=O)C3(C(=O)NO)CCC4(CCNCC4)C3)cc2)cc1 (centres unmarked) [Example 1-63]
> 25 | – | NC(=O)c1ccc(Oc2ccc(S(=O)(=O)C3(C(=O)NO)CCC4(CCNCC4)C3)cc2)cc1 (centres unmarked) [Example 1-64]
1 to 10 | – | CC(C)NC(=O)c1ccc(Oc2ccc(S(=O)(=O)C3(C(=O)NO)CCC4(CCNCC4)C3)cc2)cc1 (centres unmarked) [Example 1-65]

EC50 (Homo sapiens) [µM] | EC50 [1] [µM] | SMILES
> 25 | – | O=C(NO)C1(S(=O)(=O)c2ccc(Cc3ccccc3)cc2)CCC2(CCNCC2)C1 (centres unmarked) [Example 1-66]
1 to 10 | – | CC(C)Oc1ccc(Oc2ccc(S(=O)(=O)C3(C(=O)NO)CCC4(CCNCC4)C3)cc2)cc1 (centres unmarked) [Example 1-72]
1 to 10 | – | COC(=O)c1cccc(Oc2ccc(S(=O)(=O)C3(C(=O)NO)CCC4(CCNCC4)C3)cc2)c1 (centres unmarked) [Example 1-74]
1 to 10 | – | O=C(O)c1cccc(Oc2ccc(S(=O)(=O)C3(C(=O)NO)CCC4(CCNCC4)C3)cc2)c1 (centres unmarked) [Example 1-75]
> 25 | – | O=C(NO)C1(S(=O)(=O)c2ccc(Oc3ccc(Cl)cc3)cc2)CCC2(CCNCC2)C1 (centres unmarked) [Example 1-76]
< 1 | – | O=C(O)c1ccc(C(=O)Oc2ccc(S(=O)(=O)C3(C(=O)NO)CCC4(CCNCC4)C3)cc2)cc1 (centres unmarked) [Example 1-86]
< 1 | – | O=C(O)c1ccc(Oc2ccc(S(=O)(=O)C3(C(=O)NO)CCC4(CCNCC4)C3)cc2)cc1F (centres unmarked) [Example 1-88]
> 25 | – | CNC(=O)c1ccc(Oc2ccc(S(=O)(=O)C3(C(=O)NO)CCC4(CCNCC4)C3)cc2)cc1F (centres unmarked) [Example 1-89]
> 25 | – | CNC(=O)c1ccc(Oc2ccc(S(=O)(=O)C3(C(=O)NO)CCC4(CCNCC4)C3)cc2)c(F)c1 (centres unmarked) [Example 1-93]
> 25 | – | COC(=O)c1ccc(Oc2ccc(S(=O)(=O)C3(C(=O)NO)CCC4(CCNCC4)C3)cc2)c(F)c1 (centres unmarked) [Example 1-94]
> 25 | – | O=C(O)c1ccc(Oc2ccc(S(=O)(=O)C3(C(=O)NO)CCC4(CCNCC4)C3)cc2)c(F)c1 (centres unmarked) [Example 1-95]
< 1 | – | O=C(NO)C1(S(=O)(=O)c2ccc(OCc3ccncc3)cc2)CCC2(CCNCC2)C1 (centres unmarked) [Example 1-100]
10 to 25 | – | O=C(NO)C1(S(=O)(=O)c2ccc(Oc3ccc(OC(F)(F)F)c(Cl)c3)cc2)CCC2(CCNCC2)C1 (centres unmarked) [Example 1-114]
< 1 | – | O=C(NO)C1(S(=O)(=O)c2ccc(Oc3cccc(OC(F)(F)F)c3)cc2)CCC2(CCNCC2)C1 (centres unmarked) [Example 1-115]
< 1 | – | O=C(NO)C1(S(=O)(=O)c2ccc(F)c(Cl)c2)CCC2(CCNCC2)C1 (centres unmarked) [Example 1-116, N-hydroxy-3-(3-chloro-4-fluorophenylsulfonyl)-8-azaspiro[4.5]decane-3-carboxamide]
< 1 | – | O=C(NO)C1(S(=O)(=O)c2ccc(Oc3ccc(OC(F)(F)F)c(F)c3)cc2)CCC2(CCNCC2)C1 (centres unmarked) [Example 1-118]
< 1 | – | COc1ccc(C(=O)Oc2cccc(S(=O)(=O)C3(C(=O)NO)CCC4(CCNCC4)C3)c2)cc1 (centres unmarked) [Example 1-119]
< 1 | – | O=C(NO)C1(S(=O)(=O)c2cccc(Oc3ccc(OC(F)(F)F)cc3)c2)CCC2(CCNCC2)C1 (centres unmarked) [Example 1-123]
